The values that follow come from ChEMBL document CHEMBL1201862, “PubChem BioAssay data set” (2004).

What all share (experiment): NCI tumour cell line growth inhibition, 48 h
Test [1] has as its system HOP-62.
Test [2] concerns ACHN.
Test [3] relates to SNB-75.
For test [4], the system named is OVCAR-5.
Test [5] concerns A498.
Test [6] deals with HCT-15.
The subject of test [7] is SF-268.
The test system of test [8] is SF-539.
In test [9] the test system is SK-MEL-2.
Test [10] deals with HL-60.
In test [11] the test system is EKVX.
Test [12] has as its system CCRF-CEM.
The test system of test [13] is MOLT-4.
The subject of test [14] is U-251.
The test system of test [15] is CAKI-1.
The test system of test [16] is 786-0.
The subject of test [17] is BT-549.
Test [18] concerns PC-3.
Test [19] deals with MDA-MB-435.
Test [20] has as its system MCF7.

The structures appear in SMILES notation.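 Step 1: Grow cells in 96-well plates. Step 2: Expose to compound for 48 hours at 5 concentrations. Step 3: Interpolate endpoints linearly; if unreached, use highest concentration. GI50 is the concentration that inhibits growth by half.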 Activity calls are given as the source filed them. No stated cut-off is given here; in the data, active = GI50 up to about 1.1 µM and inactive = higher.

Regarding `COc1ccc2c(c1)C(=O)C1CC(=O)CCC21` (configuration not stated), the GI50 in test [1] was > 100 µM (inactive); in test [2] it was > 100 µM (inactive); in [3], > 100 µM (inactive); in test [4], > 100 µM (inactive); in [5], > 100 µM (inactive); in [6], greater than 100 µM. In addition, the GI50 in test [7], in test [8], in [9], in test [10], in test [11] and in test [12] was > 100 µM (inactive) in each case. Moreover, the GI50 in test [13], in [14], in [15] and in test [16] was > 100 µM (inactive) throughout.

Regarding `CCCNC1=Nc2ccccc2NC(C)C1` (configuration not stated), the GI50 in [17] is > 100 µM (inactive); in [18], > 100 µM (inactive); in [1], > 100 µM (inactive); in [2], > 100 µM (inactive); in test [3] it was 22.6 µM (inactive); in test [4] it was > 100 µM (inactive). Also, the GI50 in test [5] was > 100 µM (inactive); in test [6], greater than 100 µM; in [7] it was > 100 µM (inactive); in test [19] it was > 100 µM (inactive); in [9], > 100 µM (inactive); in test [10] it was > 100 µM (inactive). Moreover, the GI50 in test [11], in [12], in test [13], in test [14], in [15] and in test [16] was > 100 µM (inactive) in each case.

For the molecule `O=C(O/N=c1/ccc(=O)/c(=N\OC(=O)c2ccccc2)c1=O)c1ccccc1`, the GI50 in [20] was 1.81 µM (inactive); in test [18], 76.4 µM (inactive); in test [1], > 100 µM (inactive); in test [2], > 100 µM (inactive); in test [3], > 100 µM (inactive); in [4], > 100 µM (inactive). Also, the GI50 was > 100 µM (inactive) in test [5]; greater than 100 µM in test [6]; > 100 µM (inactive) in [7]; 53.6 µM (inactive) in test [19]; > 100 µM (inactive) in test [8]; 0.857 µM (active) in test [10]. The GI50 in test [11] is > 100 µM (inactive); in [12], 33 µM (inactive); in test [13], 40.2 µM (inactive); in [14], > 100 µM (inactive); in [15] it was > 100 µM (inactive); in test [16], > 100 µM (inactive).

Take `O=C1OC(=O)C23CSCC12C1C=CC3O1` (configuration not stated): the GI50 in test [1] was > 100 µM (inactive); in test [2], > 100 µM (inactive); in test [3], > 100 µM (inactive); in [4], > 100 µM (inactive); in test [5] it was > 100 µM (inactive); in [6], greater than 100 µM. Also, the GI50 in test [7], in [8], in [9], in test [10], in test [11] and in test [12] was > 100 µM (inactive) in each case. In addition, the GI50 in test [13], in test [14], in [15] and in test [16] was > 100 µM (inactive) in each case.

On to `CSc1cc(Cl)c(C)cc1S(=O)(=O)NC(=O)NNc1ccccn1`, for which the GI50 in test [20] was > 100 µM (inactive); in test [18], > 100 µM (inactive); in test [1] it was > 100 µM (inactive); in [2], > 100 µM (inactive); in test [3], 5.21 µM (inactive); in [4] it was > 100 µM (inactive). For the same molecule, the GI50 is > 100 µM (inactive) in test [5]; greater than 100 µM in test [6]; > 100 µM (inactive) in test [7]; > 100 µM (inactive) in test [19]; > 100 µM (inactive) in test [8]; > 100 µM (inactive) in [9]. Further, the GI50 in test [11], in [12], in test [13], in [14], in [15] and in test [16] was > 100 µM (inactive) each time.

For the molecule `N#CC1CC2(C1)OCCS2` (configuration not stated), the GI50 in test [1] was > 100 µM (inactive); in test [2], > 100 µM (inactive); in [3], 32.3 µM (inactive); in [4], > 100 µM (inactive); in test [5], > 100 µM (inactive); in [6], greater than 100 µM. In addition, the GI50 in test [7], in [8], in test [9], in test [10], in [11] and in test [12] was > 100 µM (inactive) throughout. Also, the GI50 in [13], in test [14], in [15] and in test [16] was > 100 µM (inactive) throughout.

As for `C#CCC(O)c1ccc(OC)c(OCc2ccccc2)c1` (configuration not stated), the GI50 in test [20] was > 100 µM (inactive); in test [18], > 100 µM (inactive); in [1] it was > 100 µM (inactive); in [2], > 100 µM (inactive); in [3] it was 27 µM (inactive); in test [4], > 100 µM (inactive). Moreover, the GI50 in [5] was > 100 µM (inactive); in test [6], greater than 100 µM; in test [7], > 100 µM (inactive); in test [19] it was > 100 µM (inactive); in test [8], > 100 µM (inactive); in [9], > 100 µM (inactive). For the same molecule, the GI50 is > 100 µM (inactive) in test [10]; 56.2 µM (inactive) in test [11]; 26.7 µM (inactive) in test [12]; 23.6 µM (inactive) in test [13]; > 100 µM (inactive) in test [14]; > 100 µM (inactive) in test [15]. Moreover, the GI50 in [16] is > 100 µM (inactive).

In the case of `CCN1CCCC(C#N)(c2ccccc2)CC1` (configuration not stated), the GI50 in [18] was > 100 µM (inactive); in test [1], > 100 µM (inactive); in test [2], > 100 µM (inactive); in test [3], 99.5 µM (inactive); in test [4], > 100 µM (inactive); in test [5], > 100 µM (inactive). For the same molecule, the GI50 in test [6] is greater than 100 µM; in [7], > 100 µM (inactive); in test [10] it was > 100 µM (inactive); in [11], > 100 µM (inactive); in test [12], > 10 µM (inactive); in [13] it was > 100 µM (inactive). Moreover, the GI50 in test [14], in test [15] and in test [16] was > 100 µM (inactive) each time.

Consider `COc1cccc(/C(CC(O)(C(F)(F)F)C(F)(F)F)=N\N(C)C)c1`, for which the GI50 in test [18], in [1], in test [2], in test [3], in test [4] and in test [5] was > 100 µM (inactive) each time. In addition, the GI50 in [6] was greater than 100 µM; in test [7] it was > 100 µM (inactive); in test [19] it was > 100 µM (inactive); in test [8], > 100 µM (inactive); in [9], > 100 µM (inactive); in [10] it was > 100 µM (inactive). Also, the GI50 in [11], in test [12], in test [13], in test [14], in [15] and in test [16] was > 100 µM (inactive) in each case.

On to `CCOC(=O)c1cn(Cc2ccccc2)c(=O)n1Cc1ccccc1`, for which the GI50 in test [1] is > 100 µM (inactive); in [2], > 100 µM (inactive); in [3], > 100 µM (inactive); in [4], > 100 µM (inactive); in test [5], > 100 µM (inactive); in test [6], 80.2 µM. For the same molecule, the GI50 in test [7] is > 100 µM (inactive); in test [8], > 100 µM (inactive); in test [9], > 100 µM (inactive); in test [10], 6.93 µM (inactive); in test [11] it was > 100 µM (inactive); in test [12], 62.8 µM (inactive). The GI50 in test [13] is 35 µM (inactive); in test [14] it was > 100 µM (inactive); in [15], 77.1 µM (inactive); in test [16], > 100 µM (inactive).

On to `O=C(O)C1C2CC3CC2CC31` (configuration not stated), for which the GI50 in [1] is > 100 µM (inactive); in test [2], > 100 µM (inactive); in [3], > 100 µM (inactive); in test [4] it was > 100 µM (inactive); in test [5], > 100 µM (inactive); in test [6] it was greater than 100 µM. Also, the GI50 in [7], in test [8], in test [9], in [10], in test [11] and in test [12] was > 100 µM (inactive) in each case. Further, the GI50 in test [13], in [14], in test [15] and in [16] was > 100 µM (inactive) each time.

On to `Clc1ccccc1C1N2CCCCC2[C@@H]2c3[nH]c4ccccc4c3CCN12` (some centres not stated), for which the GI50 in test [1] is 29.9 µM (inactive); in [2] it was 16.2 µM (inactive); in test [3], 32.4 µM (inactive); in test [4] it was 20.9 µM (inactive); in test [5], 13.9 µM (inactive); in test [6], 16.2 µM. The GI50 in test [7] was 17.9 µM (inactive); in test [8] it was 15.2 µM (inactive); in test [9] it was 16.7 µM (inactive); in test [10], 19.5 µM (inactive); in test [11], 40.1 µM (inactive); in test [12], 19.1 µM (inactive). Moreover, the GI50 is 31 µM (inactive) in [13], 17.7 µM (inactive) in test [14], > 10 µM (inactive) in test [15] and 21.2 µM (inactive) in test [16].
